Our source for the IC50 values is patent publication US8791113B2, “2,4-diaryl-substituted [1,8] naphthyridines as kinase inhibitors for use against cancer” (Merck Patent GmbH, priority 2010, dated 2014).

Experiment [1] deals with TGF-beta-induced phosphorylation of Smad2 (Ser465/467) and Smad3 (Ser423/425) in Mv1-Lu cells. Nature of the experiment: Inhibition of Smad2/3 phosphorylation in Mv1Lu cells (PathScan Phospho-Smad2 ELISA). It is filed as cell-based, mink Mustela vison. Conditions: Neogale vison, Mv1-Lu cells, TGF-beta 1 5 ng/ml, Phospho-Smad2/3 ELISA, read-out: TβR activity (Example 51). In a few lines: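 Serum-starved mink Mv1-Lu lung epithelial cells were pretreated with compound for 1.5 h, then stimulated 1 h with 5 ng/ml TGF-beta 1 (0.2% DMSO). Phospho-Smad2/3 in lysates was quantified by ELISA against stimulated and unstimulated controls. IC50 was taken from dose-response fits.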
(In general: ELISA stands for enzyme-linked immunosorbent assay.)

Experiment [2] deals with T1, GST-ALK5 (TGF-beta receptor kinase) (Homo sapiens, UniProt P36897).
T1 sequence (P36897 34-503): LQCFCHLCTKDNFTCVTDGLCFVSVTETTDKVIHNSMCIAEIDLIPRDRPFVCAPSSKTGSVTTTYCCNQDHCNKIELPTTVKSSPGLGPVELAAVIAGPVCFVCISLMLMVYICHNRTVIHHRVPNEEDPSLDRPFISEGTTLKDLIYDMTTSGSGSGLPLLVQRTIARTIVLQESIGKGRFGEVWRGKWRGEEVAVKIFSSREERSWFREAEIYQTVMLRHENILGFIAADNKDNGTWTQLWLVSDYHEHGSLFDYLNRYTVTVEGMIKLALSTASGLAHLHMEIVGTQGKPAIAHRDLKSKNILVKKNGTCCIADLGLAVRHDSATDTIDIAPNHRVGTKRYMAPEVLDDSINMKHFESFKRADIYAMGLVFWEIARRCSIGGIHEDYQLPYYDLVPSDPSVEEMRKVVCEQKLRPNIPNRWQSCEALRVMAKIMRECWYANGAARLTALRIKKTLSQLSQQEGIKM
Nature of the experiment: In-vitro (enzyme) kinase flashplate assay: GST-ALK5 phosphorylation of GST-SMAD2 with 33P-ATP. The experiment is classed as biochemical. Conditions: 384-well flashplate kinase assay, GST-ALK5 / GST-SMAD2, 33P-ATP, 30° C., 45 min; read-out: TβR activity (Example 50). In a few lines: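 Flashplate format: 31.2 nM GST-ALK5, 439 nM GST-SMAD2, 3 mM ATP with 33P-ATP in HEPES/MgCl2/MnCl2/DTT/BSA buffer, pH 7.4, 45 min at 30 °C, 5–10 compound concentrations. EDTA stop, saline washes, radioactivity counted. IC50 calculated from the counts.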

Turning to `Fc1ccc(Cl)cc1-c1cc(-c2cnc(OCCN3CCOCC3)c3cnccc23)c2cccnc2n1` [Compound 77, 2-(5-Chloro-2-fluoro-phenyl)-4-[1-(2-morpholin-4-yl-ethoxy)-[2,7]naphthyridin-4-yl]-[1,8]naphthyridine], the IC50 in experiment [1] and in experiment [2] was under 1 µM each time.

With `O=c1[nH]cc(-c2cc(-c3cc(Cl)ccc3F)nc3ncccc23)c2ccncc12` [Compound 89, 4-[2-(5-Chloro-2-fluoro-phenyl)-[1,8]naphthyridin-4-yl]-2H-[2,7]naphthyridin-1-one], the IC50 in experiment [1] and in experiment [2] was under 1 µM in each case.

Take `Cc1ccc(-c2cc(-c3nccc4c(N)nccc34)c3cccnc3n2)o1` [Compound 84, 5-[2-(5-Methyl-furan-2-yl)-[1,8]naphthyridin-4-yl]-[2,6]naphthyridin-1-ylamine]: the IC50 in experiment [1] and in experiment [2] was under 1 µM throughout.

On to `Fc1ccc(Cl)cc1-c1cc(-c2ccc(OCCN3CCCC3)c3cnccc23)c2cccnc2n1` [Compound 102, 2-(5-Chloro-2-fluoro-phenyl)-4-[8-(2-pyrrolidin-1-yl-ethoxy)-isoquinolin-5-yl]-[1,8]naphthyridine], for which the IC50 in experiment [1] and in experiment [2] was under 1 µM throughout.

Turning to `CCN(CC)CCOc1ncc(-c2cc(-c3cc(Cl)ccc3F)nc3ncccc23)c2ccncc12` [Compound 98, (2-{4-[2-(5-Chloro-2-fluoro-phenyl)-[1,8]naphthyridin-4-yl]-[2,7]naphthyridin-1-yloxy}-ethyl)-diethyl-amine], the IC50 in experiment [1] and in experiment [2] was under 1 µM each time.

Consider `Cc1cccc(-c2cc(-c3nccc4cnccc34)c3cccnc3n2)n1` [Compound 7, 2-(6-Methyl-pyridin-2-yl)-4-[2,6]naphthyridin-1-yl-[1,8]naphthyridine], for which the IC50 was 1 to 10 µM in experiment [1] and under 1 µM in experiment [2].

On to `COc1ccc(-c2cc(-c3ccccc3F)nc3ncccc23)c2ccncc12` [Compound 17, 2-(2-Fluoro-phenyl)-4-(8-methoxy-isoquinolin-5-yl)-[1,8]naphthyridine], for which the IC50 in experiment [1] and in experiment [2] was under 1 µM throughout.
